Our source for the IC50 values is US7732475B2, “Histone deacetylase inhibitors” (Takeda San Diego, Inc., priority 2005, dated 2010).

Molecules are shown by their SMILES.

Chain of HDAC2 (Q92769 with tags, fused parts or gaps): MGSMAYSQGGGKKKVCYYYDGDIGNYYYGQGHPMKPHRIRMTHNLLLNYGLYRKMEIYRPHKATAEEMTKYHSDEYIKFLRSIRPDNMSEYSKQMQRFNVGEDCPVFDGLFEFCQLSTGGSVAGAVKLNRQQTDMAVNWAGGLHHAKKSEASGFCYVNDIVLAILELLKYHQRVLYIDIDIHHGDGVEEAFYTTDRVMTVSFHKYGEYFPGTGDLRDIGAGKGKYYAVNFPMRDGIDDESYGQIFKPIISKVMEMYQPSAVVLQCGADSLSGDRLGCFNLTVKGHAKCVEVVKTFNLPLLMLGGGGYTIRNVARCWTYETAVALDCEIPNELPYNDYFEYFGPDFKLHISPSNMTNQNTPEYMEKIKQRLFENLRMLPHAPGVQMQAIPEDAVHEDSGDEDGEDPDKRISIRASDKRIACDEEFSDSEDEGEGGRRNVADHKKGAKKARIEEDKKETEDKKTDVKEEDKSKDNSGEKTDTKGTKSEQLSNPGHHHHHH

The assay addresses HDAC2 (Homo sapiens, UniProt Q92769). The assay can be described thus: HDAC2 fluorescence inhibition assay (tBoc-Lys(Ac)-AMC).
`Cc1c2cccc(F)c2nn1Cc1ccc(C(=O)Nc2ccccc2N)cc1` [Example 53, N-(2-aminophenyl)-4-((7-fluoro-3-methyl-2H-indazol-2-yl)methyl)benzamide] came in with an IC50 of 50 to 100 nM.

In turn, `Nc1ccccc1NC(=O)c1ccc(Cn2cc(C(=O)NCCN3CCOCC3)cn2)cc1` [Example 147, 1-(4-(2-aminophenylcarbamoyl)benzyl)-N-(2-morpholinoethyl)-1H-pyrazole-4-carboxamide] came in with an IC50 of 50 to 100 nM.

The compound `Nc1ccccc1NC(=O)c1ccc(Cn2cc3ccc(C(F)(F)F)cc3n2)cc1` [Example 121, N-(2-aminophenyl)-4-((6-(trifluoromethyl)-2H-indazol-2-yl)methyl)benzamide] had an IC50 of no more than 50 nM.

In turn, `Nc1ccc(-c2cccs2)cc1NC(=O)c1ccc(Cn2cc3c(F)cc(F)cc3n2)cc1` [Example 112, N-(2-amino-5-(thiophen-2-yl)phenyl)-4-((4,6-difluoro-2H-indazol-2-yl)methyl)benzamide] came in with an IC50 of 100 to 500 nM.

Compound `CC(=O)Nc1ccc2nn(Cc3ccc(C(=O)Nc4ccccc4N)cc3)cc2c1` [Example 4, 4-((5-acetamido-2H-indazol-2-yl)methyl)-N-(2-aminophenyl)benzamide] registered an IC50 of no more than 50 nM.

With `CN(C)CCCNC(=O)c1cnn(Cc2ccc(C(=O)Nc3ccccc3N)cc2)c1` [Example 144, 1-(4-(2-aminophenylcarbamoyl)benzyl)-N-(3-(dimethylamino)propyl)-1H-pyrazole-4-carboxamide], the IC50 was no more than 50 nM.

Compound `CC(=O)Nc1ccc2c(cnn2Cc2ccc(C(=O)Nc3ccccc3N)s2)c1` [Example 110, 5-((5-acetamido-1H-indazol-1-yl)methyl)-N-(2-aminophenyl)thiophene-2-carboxamide] showed an IC50 of 50 to 100 nM.

In turn, `Nc1ccccc1NC(=O)c1ccc(Cn2cc3cc(NC(=O)N4CCOCC4)ccc3n2)cc1` [Example 18, N-(2-(4-((2-Aminophenyl)carbamoyl)benzyl)-2H-indazol-5-yl)morpholine-4-carboxamide] displayed an IC50 of no more than 50 nM.

For `COc1ccc2c(C)n(Cc3ccc(C(=O)Nc4ccccc4N)cc3)nc2c1` [Example 67, N-(2-aminophenyl)-4-((6-methoxy-3-methyl-2H-indazol-2-yl)methyl)benzamide], the IC50 is no more than 50 nM.

As for `COC(=O)c1ccc(N)c(NC(=O)c2ccc(Cn3cc4ccccc4n3)cc2)c1` [Example 33, Methyl 3-(4-((2H-indazol-2-yl)methyl)benzamido)-4-aminobenzoate], the IC50 is no less than 500 nM.

In turn, `Cc1nn(Cc2ccc(C(=O)Nc3ccccc3N)cc2)c2c(F)cccc12` [Example 52, N-(2-aminophenyl)-4-((7-fluoro-3-methyl-1H-indazol-1-yl)methyl)benzamide] showed an IC50 of 50 to 100 nM.

As for `Nc1ccccc1NC(=O)c1ccc(Cn2ccc3cccnc32)cc1` [Example 157, 4-((1H-Pyrrolo[2,3-b]pyridin-1-yl)methyl)-N-(2-aminophenyl)benzamide], the IC50 was in the range of 100 to 500 nM.

Consider `COCCOC(=O)Nc1ccc2nn(Cc3ccc(C(=O)Nc4ccccc4N)cc3)cc2c1` [Example 11, 2-Methoxyethyl 2-(4-((2-aminophenyl)carbamoyl)benzyl)-2H-indazol-5-ylcarbamate], for which the IC50 is no more than 50 nM.

With `Nc1ccccc1NC(=O)c1ccc(Cn2ncc3c(Cl)cccc32)cc1` [Example 42, N-(2-aminophenyl)-4-((4-chloro-1H-indazol-1-yl)methyl)benzamide], the IC50 is no more than 50 nM.

As for `CCOC(=O)c1cnn(Cc2ccc(C(=O)Nc3ccccc3N)cc2)c1` [Example 125, Ethyl 1-(4-(2-aminophenylcarbamoyl)benzyl)-1H-pyrazole-4-carboxylate], the IC50 was in the range of 50 to 100 nM.

`Nc1ccccc1NC(=O)c1ccc(Cn2ncc3cc(NC(=O)c4ccccc4)ccc32)cc1` [Example 6, 4-((5-benzamido-1H-indazol-1-yl)methyl)-N-(2-aminophenyl)benzamide] displayed an IC50 of no more than 50 nM.

The compound `Nc1ccccc1NC(=O)c1ccc(Cn2nnc3ccccc32)cc1` [Example 100, 4-((1H-benzo[d][1,2,3]triazol-1-yl)methyl)-N-(2-aminophenyl)benzamide] gave an IC50 of 50 to 100 nM.

On to `Nc1ccccc1NC(=O)c1ccc(Cn2ncc3ccccc32)cc1` [Example 1, 4-((1H-indazol-1-yl)methyl)-N-(2-aminophenyl)benzamide], for which the IC50 was no more than 50 nM.

Take `COc1ccc2cnn(Cc3ccc(C(=O)Nc4ccccc4N)cc3)c2c1` [Example 58, N-(2-aminophenyl)-4-((6-methoxy-1H-indazol-1-yl)methyl)benzamide]: the IC50 lay in the range of 50 to 100 nM.

`Nc1ccccc1NC(=O)c1ccc(Cn2nc3ccc(C(F)(F)F)cc3c2N)cc1` [Example 62, 4-((3-amino-5-(trifluoromethyl)-2H-indazol-2-yl)methyl)-N-(2-aminophenyl)benzamide] came in with an IC50 of no more than 50 nM.

Compound `CN1CCN(CCCNC(=O)c2cnn(Cc3ccc(C(=O)Nc4ccccc4N)cc3)c2)CC1` [Example 156, 1-(4-(2-aminophenylcarbamoyl)benzyl)-N-(3-(4-methylpiperazin-1-yl)propyl)-1H-pyrazole-4-carboxamide] returned an IC50 of 50 to 100 nM.

In turn, `Nc1ccc(-c2cccs2)cc1NC(=O)c1ccc(Cn2ncc3c(F)cc(F)cc32)cc1` [Example 113, N-(2-amino-5-(thiophen-2-yl)phenyl)-4-((4,6-difluoro-1H-indazol-1-yl)methyl)benzamide] returned an IC50 of 100 to 500 nM.

Compound `CC(=O)Nc1ccc2cn(Cc3ccc(C(=O)Nc4ccccc4N)cc3)nc2c1` [Example 90, 4-((6-acetamido-2H-indazol-2-yl)methyl)-N-(2-aminophenyl)benzamide] returned an IC50 of no more than 50 nM.

`Cc1cc(C)n(Cc2ccc(C(=O)Nc3ccccc3N)cc2)n1` [Example 124, N-(2-aminophenyl)-4-((3,5-dimethyl-1H-pyrazol-1-yl)methyl)benzamide] registered an IC50 of 100 to 500 nM.

As to `COc1cccc2nn(Cc3ccc(C(=O)Nc4ccccc4N)cc3)cc12` [Example 83, N-(2-aminophenyl)-4-((4-methoxy-2H-indazol-2-yl)methyl)benzamide], the half-inhibitory concentration (IC50) was no more than 50 nM.

`Nc1ccccc1NC(=O)c1ccc(Cn2cc3cc(C(F)(F)F)ccc3n2)cc1` [Example 120, N-(2-aminophenyl)-4-((5-(trifluoromethyl)-2H-indazol-2-yl)methyl)benzamide] registered an IC50 of 50 to 100 nM.

In the case of `Nc1ccccc1NC(=O)c1ccc(Cn2ncc3c(F)cccc32)cc1` [Example 48, N-(2-aminophenyl)-4-((4-fluoro-1H-indazol-1-yl)methyl)benzamide], the IC50 is 50 to 100 nM.

On to `Nc1ccccc1NC(=O)c1ccc(Cn2ncc3cccc(F)c32)cc1` [Example 46, N-(2-aminophenyl)-4-((7-fluoro-1H-indazol-1-yl)methyl)benzamide], for which the IC50 lay in the range of 50 to 100 nM.

Turning to `Nc1ccc(-c2ccccc2)cc1NC(=O)c1ccc(Cn2cc3cc([N+](=O)[O-])ccc3n2)cc1` [Example 17, N-(4-Amino-biphenyl-3-yl)-4-(5-nitro-indazol-2-ylmethyl)-benzamide], the IC50 was no more than 50 nM.

Consider `Nc1ccccc1NC(=O)c1ccc(Cn2ncc3c2CCCC3)cc1` [Example 130, N-(2-aminophenyl)-4-((4,5,6,7-tetrahydro-1H-indazol-1-yl)methyl)benzamide], for which the IC50 lay within 100 to 500 nM.

As to `Nc1ccccc1NC(=O)c1ccc(Cn2cc3c(C(F)(F)F)cccc3n2)cc1` [Example 118, N-(2-aminophenyl)-4-((4-(trifluoromethyl)-2H-indazol-2-yl)methyl)benzamide], the IC50 lay in the range of 50 to 100 nM.

As to `CC(Cn1ncc2ccccc21)c1ccc(C(=O)Nc2ccccc2N)cc1` (stereo not shown) [Example 39, 4-(1-(1H-indazol-1-yl)propan-2-yl)-N-(2-aminophenyl)benzamide], the IC50 was no less than 500 nM.

On to `COc1cc2nn(Cc3ccc(C(=O)Nc4ccccc4N)cc3)cc2cc1O` [Example 97, N-(2-aminophenyl)-4-((5-hydroxy-6-methoxy-2H-indazol-2-yl)methyl)benzamide], for which the IC50 lay in the range of 50 to 100 nM.

`Cc1nn(Cc2ccc(C(=O)Nc3ccccc3N)cc2)c2cc(O)ccc12` [Example 74, N-(2-aminophenyl)-4-((6-hydroxy-3-methyl-1H-indazol-1-yl)methyl)benzamide] displayed an IC50 of no more than 50 nM.

Compound `Nc1ccccc1NC(=O)c1ccc(Cn2cc3cccc(F)c3n2)cc1` [Example 47, N-(2-aminophenyl)-4-((7-fluoro-2H-indazol-2-yl)methyl)benzamide] yielded an IC50 of 50 to 100 nM.

`Cc1c2ccc(O)cc2nn1Cc1ccc(C(=O)Nc2ccccc2N)cc1` [Example 75, N-(2-aminophenyl)-4-((6-hydroxy-3-methyl-2H-indazol-2-yl)methyl)benzamide] showed an IC50 of 100 to 500 nM.

Turning to `Nc1ccccc1NC(=O)c1ccc(Cn2nc(N)c3ccccc32)cc1` [Example 96, 4-((3-amino-1H-indazol-1-yl)methyl)-N-(2-aminophenyl)benzamide], the IC50 lay in the range of 50 to 100 nM.

`Nc1ccccc1NC(=O)c1ccc(CCn2cc3ccccc3n2)cc1` [Example 41, 4-(2-(2H-indazol-2-yl)ethyl)-N-(2-aminophenyl)benzamide] showed an IC50 of 50 to 100 nM.

Turning to `Nc1ccccc1NC(=O)c1ccc(Cn2cc3cc(F)ccc3n2)cc1` [Example 38, N-(2-aminophenyl)-4-((5-fluoro-2H-indazol-2-yl)methyl)benzamide], the IC50 was no more than 50 nM.

`Nc1ccccc1NC(=O)c1ccc(Cn2ncc3cc(NC(=O)N4CCOCC4)ccc32)cc1` [Example 21, N-(1-(4-((2-Aminophenyl)carbamoyl)benzyl)-1H-indazol-5-yl)morpholine-4-carboxamide] came in with an IC50 of no more than 50 nM.

`Nc1ccccc1NC(=O)c1ccc(Cn2cc3ccccc3n2)cc1` [Example 2, 4-((2H-indazol-2-yl)methyl)-N-(2-aminophenyl)benzamide] had an IC50 of 50 to 100 nM.

In the case of `Nc1ccccc1NC(=O)c1ccc(Cn2cc3cc(NC(=O)c4ccccc4)ccc3n2)cc1` [Example 10, 4-((5-benzamido-2H-indazol-1-yl)methyl)-N-(2-aminophenyl)benzamide], the IC50 is no more than 50 nM.

As to `Nc1ccccc1NC(=O)c1ccc(Cn2nc(N)c3cc(C(F)(F)F)ccc32)cc1` [Example 63, 4-((3-amino-5-(trifluoromethyl)-1H-indazol-1-yl)methyl)-N-(2-aminophenyl)benzamide], the IC50 was in the range of 50 to 100 nM.

In general, IC50 refers to the concentration that gives 50% inhibition. Lower therefore signals inhibition by little substance.
